Measured values as given in patent US20110118277A1, “METHOD OF TREATING LIVER DISEASE” (priority 2003, published 2011).

Legend:
healthy rats = healthy rats treated chronically; cited from earlier work
norepinephrine = conditions: 6-OHDA 100 mg/kg i.p. regimen, previously shown; cited from earlier work
[1] = test system: C57BL-6 mice fed HMCDE diet; assay: HMCDE diet-induced liver injury in mice: body weight, liver mass, histology, serum ALT, tolerability; format: in vivo, mouse
Protocol: C57BL-6 mice, 10-18 weeks old, were from Jackson Laboratory (Bar Harbor, Me.) were subjected to the following experiments.
In addition to choline deficiency the diet used here was also 50% deficient in methionine to enhance oxidative injury to the liver, This diet was administered with ethionine (0.15%) in drinking water (Hepatology 2001; 34; 519-522) and the combination treatment is hereafter referred to as half methionine choline deficient diet plus ethionine (HMCDE).
Chemical sympathectomy was achieved by intra-peritoneal (IP) injection of 6-hydroxydopamine (6-OHDA), 100 mg/kg for 5 consecutive days as described in Ann Surg 2001; 233:266-275. Thereafter, 6-OHDA was administered at 100 mg/kg i.p., three times per week to ensure continued sympathectomy.
Mice were divided into 4 groups, with each group containing 10 to 12 animals. […] Therefore, final results are derived from ˜100 mice (10-12 mice/group/experiment×2 experiments).
All mice were weighed at the beginning of the feeding period and weekly thereafter until killed. At the time of sacrifice, sera were collected from all the animals in each group and liver tissue from half the animals in each group. Collected liver tissues were either fixed in buffered formalin, preserved in OCT compound (Sakura, Torrance, Calif.) and processed for histology or snap frozen in liquid nitrogen and stored at −80° C. until RNA was isolated. The livers from the remaining animals in each group were prepared for flow cytometry as described below.
Wedges of liver from each of the mice were prepared for histology and immunochemistry as described previously (Am J Pathol 2002: 161:5210530 and Nat. Med. 2000; 6: 998-1003). For histology, tissues were formalin fixed, paraffin embedded and […] sections were stained with hematoxylin and eosin (H&E). Coded samples were examined by an experienced liver pathologist who was blinded to treatment groups. Hepatocellular fat accumulation was scored as, no fat 0, focal fat accumulation in <1% of the hepatocytes=F, fat in 1-30% of the hepatocytes 1+, fat in 31-60% of the hepatocytes=2+, and fat in 61-100% of the hepatocytes3+. To evaluate the amount of hepatocyte necrosis, the number of necrotic hepatocytes was counted in 10 randomly selected fields with a 20× lens.
Sera from all the animals were analysed for alanine aminotransferase (ALT) activity by the Clinical Chemistry laboratory of the Johns Hopkins Hospital.

NK-T cells = assay: Flow cytometry of liver NK-T cells in HMCDE-fed mice; format: in vivo, mouse; conditions: HMCDE-treated mice; HMCDE alone 8±1%; mean±SEM
Protocol: Briefly, livers were carefully removed and homogenized in Stomacher80 (Seawood, England). The homogenate was then passed through a 100-μm wire mesh and liver cells were collected by centrifugation at 450 g. Mononuclear cells were purified from this fraction by centrifugation at 900 g over 35% Percoll gradients (Amersham Pharmacia Biotech) and incubated with normal mouse serum (Sigma, St Louis, Mo.) and Fc-receptor block (anti-CD16/CD32) to prevent nonspecific binding, plus APC-conjugated anti-mouse Thy-1.2 (the C57BL-6 form of the Thy-1 antibody) and antibodies directed against hematopoietic lineage markers (LIN, a mix of anti-mouse CD4, CD8, CD3, CD45, CD19, Mac-1, Gr-1, Ter119). For NK-T cell labelling, the mononuclear cells were incubated with FTTC-conjugated anti-mouse NK-1.1 and PE-conjugated anti-mouse CD3. All antibodies were from Pharmingen except anti-mouse Ter119, which was from Cedarline lab, Canada. After incubation, pellets were washed to remove unbound antibodies, fixed with 2% formaldehyde and evaluated by FACS (Becton Dickenson). As described in Science 1999; 284:1168-1170, LN^−ve/Thy-1^+ve cells, were classified as putative bone marrow-derived, hepatic progenitor cells. Data was analyzed by Cell Quest software (Becton Dickenson) to determine changes in these cell populations in different treatment groups.

TNF-α = assay: Hepatic expression of TNF-α mRNA in whole liver RNA; format: in vivo, mouse; conditions: 3 controls and 3 PRZ-treated mice
Source text: The latter possibility merits further investigation because it has been reported that TNF-a increases in mice that are fed choline-deficient diets and that proliferating hepatic oval cells produce this cytokine. Moreover, it has been reported that TNF-α is required for oval cell expansion because this response is abrogated by genetic disruption of TNFR1. These observations are particularly intriguing because TNF-α and TNFR1 are necessary for liver regeneration after PH and other types of liver injury. There is strong evidence for cross talk between signaling mechanisms that are activated by TNF-α and those that are modulated by sympathetic neurotransmitters, such as NE. In addition, NE regulates TNF production and vice versa. Thus, SNS inhibition may promote HPC accumulation and decrease liver injury indirectly, by effecting TNF-α activity. […] However, before firm conclusions can be drawn, these studies must be extended to include more animals and assays for TNF-α protein and activity will be necessary.

[2] = test system: Mouse hepatic oval cells (HOC); assay: Oval cell growth in culture (WST-8 cell number assay); format: cell-based
Protocol: Mouse hepatic oval cells (HOC) (from Dr. Bryon Petersen, University of Florida College of Medicine, Gainesville, Fla.) were maintained in culture with Iscove's modified DMEM according to the protocol described in PNAS 99: 8078-8083, 2002. To confirm that the cells retained their oval cell phenotype in our hands, expression of the embryonic isoform of pyruvate kinase (M2-PK) was evaluated by immunocytochemistry and immunoblot.
Sub-confluent HOC were harvested by gentle trypsinisation and resuspended in serum-free Iscove's modified Dulbecco's minimal essential medium (DMEM), at a density of 5,000 cells/100 μl/well in 96-well plates. […] After 44 hours, cell numbers were assessed by a further 4 h incubation with WST-8 tetrazolium reagent (Dojindo Molecular Technologies, Gaithersburg, Md.) as described in J Clin Invest 106: 501-509, 2000. In viable cells, the tetrazolium salt is metabolized to a colorimetric dye and cell number is proportional to the signal intensity at 450 nm Therefore, this assay reliably detects treatment-induced changes in cell number.
Oval cells were cultured in serum free medium (SF), serum or serum plus increasing concentrations of NE (a) or ISO (c). After 48 hours, the numbers of cells in culture were evaluated. […] Cell numbers were determined after 48 hours.

hepatocyte DNA synthesis = conditions: rats pre-treated immediately before PH; cited from earlier work
[3] = test system: carbon tetrachloride-treated rats; conditions: earlier study; cited from earlier work

Structure (SMILES) | liver weight, body weight, ratio and serum ALT (healthy rats) | norepinephrine in rodent tissues (norepinephrine) | weight loss versus HMCDE group ([1]; FIG. 1, 4 weeks of feeding, P<0.05) | liver cell death / necrosis, representative liver section ([1]; FIG. 3A, H&E) | hepatocellular fat accumulation score, representative liver section ([1]; FIG. 3A, H&E, representative HMCDE animal 2+) | fat score versus HMCDE alone ([1]; FIG. 3B) | numbers of necrotic hepatocytes versus HMCDE diet alone ([1]; FIG. 3C, P<0.05) | serum alanine aminotransferase (ALT) versus HMCDE-fed mice ([1]; FIG. 3D, P<0.03) | mean body weight lost ([1]; mice fed HMCDE diet, 4 weeks, HMCDE alone lost 3 g) [g] | body weight lost, % of starting body weight ([1]; mice fed HMCDE diet, 4 weeks, HMCDE alone lost 12%) [%] | numbers of NK-T cells in the liver, % liver mononuclear cells (NK-T cells) [%] | hepatic TNF-α gene expression versus HMCDE-treated controls (TNF-α) | effect on proliferation induced by NE plus ISO ([2]; PRZ 10 μM, NE (100 nM)+ISO (100 nM)) | effect on NE-induced oval cell proliferation ([2]; prazosin 10 μM, pertussis toxin 100 ng/ml, PD98059 20 μM, SB202190 10 μM, 48 hours) | compensatory induction of hepatocyte DNA synthesis after partial hepatectomy (hepatocyte DNA synthesis) | development of cirrhosis [3]
NCCc1cc(O)c(O)cc1O [6-OHDA, 6-hydroxydopamine] | liver weight, body weight and liver weight to body weight ratios increase significantly without any associated increase in serum ALT values | virtually deplete norepinephrine in rodent tissues | lost less weight than the HMCDE group | minimal necrosis | F+ | significantly less fat than the HMCDE alone group | reduced | lower ALT levels | 2 | 8 | 3.6 ± 0.6 |  |  |  |  | 
COc1cc2nc(N3CCN(C(=O)c4ccco4)CC3)nc(N)c2cc1OC [PRZ, prazosin] |  |  |  |  |  |  |  |  |  |  |  | No differences in TNF-a gene expression were detected | blocks catecholamine-induced proliferation | significantly attenuated | inhibited | prevents the development of cirrhosis
